Experimental data as given in PMC9623604 (European journal of pharmacology, 2022).

Target: mitochondrial complex I (NADH:ubiquinone oxidoreductase) (Mus musculus, UniProt P03888+Q91WD5+Q9DC70)
Type: biochemical

CN(C)C(=N)N=C(N)N [metformin] was tested, and the IC50 was ~2 mM.
